Test results reported in ChEMBL document CHEMBL3881527, “Multi-functional small molecules as anti-proliferative agents” (2008).
The source made the active and inactive calls. The rule behind the calls is not given here.

Columns and labels:
[1] = target: Vascular endothelial growth factor receptor 2 (Homo sapiens, UniProt P35968); assay: Inhibition of N-terminal GST-His6-thrombin cleavage site-fused human VEGFR2 (Asp805 to Val1356 residues) expressed in baculovirus expression system using biotinylated gastrin precursor at Tyr87 as substrate preincubated for 5 mins followed by substrate addition measured after 30 mins by DELFIA method
[2] = target: Platelet-derived growth factor receptor beta (Homo sapiens, UniProt P09619); assay: Inhibition of N-terminal GST-His6-thrombin cleavage site-fused human PDGFRbeta (Arg561 to Leu1106 residues) assessed as decrease in biotinylated FLT3 phosphorylation at Tyr589 preincubated for 5 mins followed by substrate addition measured after 30 mins by DELFIA method
Chain of Platelet-derived growth factor receptor beta (P09619 whole entry, the tested form may be a part): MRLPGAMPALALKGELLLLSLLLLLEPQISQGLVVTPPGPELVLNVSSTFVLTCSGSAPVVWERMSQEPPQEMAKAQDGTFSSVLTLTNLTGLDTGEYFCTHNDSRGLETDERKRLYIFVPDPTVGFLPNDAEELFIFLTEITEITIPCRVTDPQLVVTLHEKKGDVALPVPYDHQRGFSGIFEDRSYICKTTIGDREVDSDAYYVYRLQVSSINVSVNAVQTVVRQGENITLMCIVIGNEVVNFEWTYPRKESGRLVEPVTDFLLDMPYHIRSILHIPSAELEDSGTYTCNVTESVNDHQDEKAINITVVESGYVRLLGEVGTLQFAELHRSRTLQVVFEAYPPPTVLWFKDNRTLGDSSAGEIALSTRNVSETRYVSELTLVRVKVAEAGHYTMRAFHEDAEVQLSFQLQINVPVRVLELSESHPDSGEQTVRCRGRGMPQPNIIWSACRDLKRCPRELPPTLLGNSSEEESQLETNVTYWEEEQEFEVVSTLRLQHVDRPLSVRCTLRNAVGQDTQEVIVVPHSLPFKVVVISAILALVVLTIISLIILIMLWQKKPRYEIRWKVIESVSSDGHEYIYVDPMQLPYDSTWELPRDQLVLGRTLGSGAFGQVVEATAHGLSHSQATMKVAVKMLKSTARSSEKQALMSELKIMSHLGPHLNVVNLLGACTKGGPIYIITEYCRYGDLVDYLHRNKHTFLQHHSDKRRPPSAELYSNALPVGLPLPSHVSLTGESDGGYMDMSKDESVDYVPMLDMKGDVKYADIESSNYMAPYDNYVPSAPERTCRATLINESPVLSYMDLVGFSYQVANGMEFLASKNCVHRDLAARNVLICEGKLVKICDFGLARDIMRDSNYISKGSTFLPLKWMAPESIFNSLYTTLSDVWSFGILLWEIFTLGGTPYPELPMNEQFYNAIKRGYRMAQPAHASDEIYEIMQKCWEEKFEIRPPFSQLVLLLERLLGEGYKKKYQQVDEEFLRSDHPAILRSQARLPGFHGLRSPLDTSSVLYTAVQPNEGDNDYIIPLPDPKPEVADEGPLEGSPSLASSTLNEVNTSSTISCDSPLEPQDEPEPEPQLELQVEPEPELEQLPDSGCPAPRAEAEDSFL

[3] = target: Mast/stem cell growth factor receptor Kit (Homo sapiens, UniProt P10721); assay: Inhibition of human N-terminal GST-tagged human c-Kit (Thr544 to Val976 residues) expressed in baculovirus expression system assessed as decrease in biotinylated KDR phosphorylation at Tyr996 preincubated for 5 mins followed by substrate addition measured after 30 mins by DELFIA method
Chain of Mast/stem cell growth factor receptor Kit (P10721 whole entry): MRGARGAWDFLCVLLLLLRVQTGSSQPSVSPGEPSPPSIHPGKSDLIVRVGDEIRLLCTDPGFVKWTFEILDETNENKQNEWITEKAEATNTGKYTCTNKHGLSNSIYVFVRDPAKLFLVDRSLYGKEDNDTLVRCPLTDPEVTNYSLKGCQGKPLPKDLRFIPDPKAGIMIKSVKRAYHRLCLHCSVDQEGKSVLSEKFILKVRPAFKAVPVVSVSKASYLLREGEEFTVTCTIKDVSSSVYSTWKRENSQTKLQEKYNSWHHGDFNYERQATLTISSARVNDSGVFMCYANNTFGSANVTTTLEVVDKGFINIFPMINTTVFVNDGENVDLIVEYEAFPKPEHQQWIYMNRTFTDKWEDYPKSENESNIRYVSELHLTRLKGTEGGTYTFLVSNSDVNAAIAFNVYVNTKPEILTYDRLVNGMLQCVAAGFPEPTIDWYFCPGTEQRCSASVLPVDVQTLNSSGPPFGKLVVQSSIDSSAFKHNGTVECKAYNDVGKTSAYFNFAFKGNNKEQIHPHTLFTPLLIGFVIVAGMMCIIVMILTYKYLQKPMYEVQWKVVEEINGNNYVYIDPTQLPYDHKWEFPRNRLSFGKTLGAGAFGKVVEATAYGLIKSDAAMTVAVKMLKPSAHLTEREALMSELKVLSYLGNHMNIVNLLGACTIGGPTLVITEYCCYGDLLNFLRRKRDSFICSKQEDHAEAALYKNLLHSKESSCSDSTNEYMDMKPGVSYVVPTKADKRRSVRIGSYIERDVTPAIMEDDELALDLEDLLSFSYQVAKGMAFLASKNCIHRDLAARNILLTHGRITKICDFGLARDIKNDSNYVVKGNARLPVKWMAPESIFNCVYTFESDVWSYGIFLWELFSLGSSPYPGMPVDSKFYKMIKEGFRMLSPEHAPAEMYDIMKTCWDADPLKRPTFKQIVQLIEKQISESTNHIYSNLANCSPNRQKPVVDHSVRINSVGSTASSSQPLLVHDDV

[4] = Cytotoxicity against human CFPAC cells assessed as growth inhibition by measuring ATP levels after 72 hrs by ATPlite assay; assay type: functional, cell-based
[5] = target: Serine/threonine-protein kinase B-raf (Homo sapiens, UniProt P15056); assay: Inhibition of N-terminal GST-tagged recombinant human B-Raf ([…] residues) expressed in baculovirus infected Sf21 insect cells using MEK1 as substrate preincubated for 5 mins followed by substrate addition measured after 30 mins by DELFIA
[6] = target: Cyclin-dependent kinase 2/cyclin E1 (Homo sapiens, UniProt P24941); assay: Inhibition of C-terminal His6-tagged full length CDK2/N-terminal GST-tagged recombinant full length human cyclin E1 expressed in baculovirus infected SF21 insect cells using histone H1 as substrate after 2 hrs in presence of [gamma-33P]-ATP
[7] = target: CDK6/cyclin D3 (Homo sapiens, UniProt Q00534); assay: Inhibition of N-terminal His6-tagged full length human CDK6/N-terminal GST-tagged recombinant full length human cyclin D3 expressed in baculovirus infected SF21 insect cells using histone H1 as substrate after 2 hrs in presence of [gamma-33P]-ATP
Chain of CDK6/cyclin D3 (P30281 whole entry): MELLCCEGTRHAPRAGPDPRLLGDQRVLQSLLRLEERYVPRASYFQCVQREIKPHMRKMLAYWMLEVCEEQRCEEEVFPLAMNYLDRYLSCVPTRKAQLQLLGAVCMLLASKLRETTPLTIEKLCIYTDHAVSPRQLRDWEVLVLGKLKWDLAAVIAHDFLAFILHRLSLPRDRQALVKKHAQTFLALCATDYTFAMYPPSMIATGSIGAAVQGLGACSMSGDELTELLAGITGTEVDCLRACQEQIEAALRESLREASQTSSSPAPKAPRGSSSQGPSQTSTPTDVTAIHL
Chain of CDK6/cyclin D3 (Q00534 whole entry): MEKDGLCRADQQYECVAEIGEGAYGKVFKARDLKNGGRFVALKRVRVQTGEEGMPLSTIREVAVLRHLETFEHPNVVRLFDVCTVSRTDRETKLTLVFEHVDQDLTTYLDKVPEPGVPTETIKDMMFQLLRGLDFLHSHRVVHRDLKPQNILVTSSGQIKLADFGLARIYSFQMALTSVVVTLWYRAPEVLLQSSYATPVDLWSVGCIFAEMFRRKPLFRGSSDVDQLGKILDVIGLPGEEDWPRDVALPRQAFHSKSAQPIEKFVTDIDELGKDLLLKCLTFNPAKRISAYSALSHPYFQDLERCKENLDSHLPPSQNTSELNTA

[8] = target: Receptor tyrosine-protein kinase erbB-2 (Homo sapiens, UniProt P04626); assay: Inhibition of N-terminal GST-tagged human HER2 (Lys676 to Val1255 residues) expressed in baculovirus expression system using biotinylated FLT3 at Tyr589 as substrate preincubated for 5 mins followed by substrate addition measured after 30 mins by DELFIA method
Chain of Receptor tyrosine-protein kinase erbB-2 (P04626 whole entry): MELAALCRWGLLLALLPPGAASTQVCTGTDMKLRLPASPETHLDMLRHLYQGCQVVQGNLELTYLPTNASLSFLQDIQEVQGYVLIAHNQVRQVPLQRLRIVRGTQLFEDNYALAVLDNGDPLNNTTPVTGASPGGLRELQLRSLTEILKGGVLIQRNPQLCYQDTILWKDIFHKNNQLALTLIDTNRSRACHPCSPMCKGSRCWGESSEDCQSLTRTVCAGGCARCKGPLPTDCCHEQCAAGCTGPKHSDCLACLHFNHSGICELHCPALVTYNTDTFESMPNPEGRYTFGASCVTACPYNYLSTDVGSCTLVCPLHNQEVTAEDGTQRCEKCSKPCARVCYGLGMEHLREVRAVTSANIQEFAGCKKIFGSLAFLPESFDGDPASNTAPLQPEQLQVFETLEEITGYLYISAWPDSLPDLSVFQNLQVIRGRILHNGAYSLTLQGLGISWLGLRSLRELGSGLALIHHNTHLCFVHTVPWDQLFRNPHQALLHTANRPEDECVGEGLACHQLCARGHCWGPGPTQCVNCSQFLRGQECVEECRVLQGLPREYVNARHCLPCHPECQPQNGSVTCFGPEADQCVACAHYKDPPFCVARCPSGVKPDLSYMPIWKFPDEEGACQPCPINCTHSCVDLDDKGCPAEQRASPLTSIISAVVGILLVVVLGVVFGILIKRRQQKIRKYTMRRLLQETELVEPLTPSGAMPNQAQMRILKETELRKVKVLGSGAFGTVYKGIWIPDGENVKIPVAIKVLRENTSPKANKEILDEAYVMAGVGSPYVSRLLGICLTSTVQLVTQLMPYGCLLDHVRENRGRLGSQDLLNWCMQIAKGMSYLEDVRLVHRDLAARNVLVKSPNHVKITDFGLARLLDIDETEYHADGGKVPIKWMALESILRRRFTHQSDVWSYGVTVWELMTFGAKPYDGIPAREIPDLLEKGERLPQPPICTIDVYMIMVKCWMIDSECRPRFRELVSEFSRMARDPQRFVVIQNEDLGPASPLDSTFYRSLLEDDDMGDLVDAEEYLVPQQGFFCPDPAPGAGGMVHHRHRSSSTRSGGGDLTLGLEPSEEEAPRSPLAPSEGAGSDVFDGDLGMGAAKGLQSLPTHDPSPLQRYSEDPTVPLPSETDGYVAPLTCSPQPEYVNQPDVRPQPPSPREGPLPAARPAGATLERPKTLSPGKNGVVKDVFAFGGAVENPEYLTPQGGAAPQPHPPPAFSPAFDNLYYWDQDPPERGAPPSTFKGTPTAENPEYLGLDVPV

[9] = target: Tyrosine-protein kinase ABL1 (Homo sapiens, UniProt P00519); assay: Inhibition of human N-terminal GST-tagged human Abl1 (Pro118 to Ser553 residues) expressed in baculovirus expression system assessed as decrease in biotin signal transduction protein phosphorylation at Tyr160 preincubated for 5 mins followed by substrate addition measured after 30 mins by DELFIA method
[10] = target: Proto-oncogene tyrosine-protein kinase Src (Homo sapiens, UniProt P12931); assay: Inhibition of human N-terminal GST-tagged full length human Src (Met1 to Leu536 residues) expressed in baculovirus expression system assessed as decrease in biotin signal transduction protein phosphorylation at Tyr160 preincubated for 5 mins followed by substrate addition measured after 30 mins by DELFIA method
Chain of Proto-oncogene tyrosine-protein kinase Src (P12931 2-536 limits assumed): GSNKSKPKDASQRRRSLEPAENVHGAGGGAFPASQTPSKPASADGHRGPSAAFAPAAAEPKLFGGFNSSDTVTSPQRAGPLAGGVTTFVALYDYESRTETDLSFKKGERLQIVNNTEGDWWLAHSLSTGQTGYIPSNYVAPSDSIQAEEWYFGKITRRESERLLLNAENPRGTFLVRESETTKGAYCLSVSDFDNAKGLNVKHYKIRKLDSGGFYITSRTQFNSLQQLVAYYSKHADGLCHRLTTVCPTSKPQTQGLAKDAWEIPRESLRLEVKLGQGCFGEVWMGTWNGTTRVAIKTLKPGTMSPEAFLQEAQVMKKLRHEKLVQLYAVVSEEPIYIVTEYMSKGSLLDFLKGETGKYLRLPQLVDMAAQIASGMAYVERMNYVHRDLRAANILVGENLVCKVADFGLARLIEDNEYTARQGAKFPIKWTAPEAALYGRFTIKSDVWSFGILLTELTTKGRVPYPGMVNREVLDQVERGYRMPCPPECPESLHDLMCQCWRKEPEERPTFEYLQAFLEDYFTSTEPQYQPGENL

[11] = system: HCT-116; assay: Induction of apoptosis in human HCT116 cells assessed as increase in caspase3/7 activity after 24 hrs; assay type: functional, cell-based; conditions: HCT-116, 24 h
[12] = system: SK-BR-3; assay: Induction of apoptosis in human SKBR3 cells assessed as increase in caspase3/7 activity after 24 hrs; assay type: functional, cell-based; conditions: SK-BR-3, 24 h
[13] = Antitumor activity against human A549 cells xenografted in nu/nu athymic mouse assessed as increase in tumor size at 120 mg/kg administered in 30% captisol after 24 hrs (reference value: 240%); assay type: functional
[14] = Toxicity in CD1 mouse assessed as change in body weight up to 200 mg/kg, iv administered as single dose in 30% captisol measured over 9 days; assay type: organism-based; conditions: in vivo, 216 h
[15] = Toxicity in CD1 mouse assessed as change in body weight up to 100 mg/kg, ip administered as repeated dosing in 30% captisol measured over 7 days; assay type: organism-based; conditions: in vivo, 168 h
[16] = Toxicity in Sprague-Dawley rat assessed as change in body weight up to 200 mg/kg, ip administered as single dose in 30% captisol measured over 8 days; assay type: organism-based; conditions: in vivo, 192 h
[17] = Chemical stability in diluted solution; assay type: physicochemical
[18] = system: A-431; assay: Antitumor activity against human A431 cells xenografted in nu/nu athymic mouse assessed as tumor growth inhibition at 6 to 48 mg/kg, ip qd administered for 21 days measured twice weekly during compound dosing; assay type: functional, organism-based
[19] = system: NCI-H358; assay: Antitumor activity against human NCI-H358 cells xenografted in nu/nu athymic mouse assessed as tumor growth inhibition at 15 to 60 mg/kg, iv as 2 mins infusion administered via 7 days on 7 days off and 5 days on regimen measured twice weekly during compound dosing; assay type: functional, organism-based
[20] = system: NCI-H292; assay: Antitumor activity against human NCI-H292 cells xenografted in nu/nu athymic mouse assessed as tumor growth inhibition at 15 to 60 mg/kg, iv as 2 mins infusion administered via 7 days on 7 days off and 5 days on regimen measured twice weekly during compound dosing; assay type: functional, organism-based
[21] = system: BXPC-3; assay: Antitumor activity against human BxPC3 cells xenografted in nu/nu athymic mouse assessed as tumor growth inhibition at 10 to 40 mg/kg, iv as 2 mins infusion administered via 7 days on 7 days off and 2 days on regimen measured twice weekly during compound dosing; assay type: functional, organism-based
[22] = system: PC-3; assay: Antitumor activity against human PC3 cells xenografted in nu/nu athymic mouse assessed as tumor growth inhibition at 10 to 40 mg/kg, iv as 2 mins infusion administered via 7 days on 7 days off and 5 days on regimen measured twice weekly during compound dosing; assay type: functional, organism-based
[23] = system: HCT-116; assay: Antitumor activity against human HCT116 cells xenografted in nu/nu athymic mouse assessed as tumor growth inhibition at 15 to 60 mg/kg, iv as 2 mins infusion administered via 5 days on 2 days off and 5 days on regimen measured twice weekly during compound dosing; assay type: functional, organism-based
[24] = system: HPAC; assay: Antitumor activity against human HPAC cells xenografted in nu/nu athymic mouse assessed as tumor growth inhibition at 120 mg/kg, iv or ip administered in 30% captisol; assay type: functional, organism-based
[25] = target: Epidermal growth factor receptor (Homo sapiens, UniProt P00533); assay: Inhibition of N-terminal GST-fused human EGFR (His672 to Ala1210 residues) expressed in baculovirus expression system using biotinylated PTP1B at Tyr66 as substrate preincubated for 5 mins followed by substrate addition measured after 30 mins by DELFIA

Structure (SMILES): O=C(CCCCCCC(=O)NCc1cc(Oc2ccc(NC(=O)Nc3ccc(Cl)c(C(F)(F)F)c3)cc2)ccn1)NO
- IC50 [1]: ≤ 0.1 µM
- IC50 [2]: 0.1 to 1 µM
- IC50 [3]: ≤ 0.1 µM

Structure (SMILES): COc1cc2ncnc(NCc3ccccc3)c2cc1OCCCCCCC(=O)NO
- IC50 [4]: 1 to 10 µM

Structure (SMILES): O=C(CCCCCNC(=O)c1cc(Oc2ccc(NC(=O)Nc3ccc(Cl)c(C(F)(F)F)c3)cc2)ccn1)NO
- IC50 [1]: ≤ 0.1 µM
- IC50 [2]: 0.1 to 1 µM
- IC50 [3]: ≤ 0.1 µM
- IC50 [5]: 1 to 10 µM

Structure (SMILES): CC(C)(C)c1cnc(CSc2cnc(NC(=O)CCCCCC(=O)NO)s2)o1
- IC50 [6]: ≤ 0.1 µM
- IC50 [7]: 0.1 to 1 µM

Structure (SMILES): CC(C)(C)c1cnc(CSc2cnc(NC(=O)CCCCC(=O)NO)s2)o1
- IC50 [6]: ≤ 0.1 µM
- IC50 [7]: 0.1 to 1 µM

Structure (SMILES): Cc1[nH]c(/C=C2\C(=O)Nc3ccc(F)cc32)c(C)c1C(=O)NCCCCCC(=O)NO
- IC50 [1]: ≤ 0.1 µM
- IC50 [2]: ≤ 0.1 µM

Structure (SMILES): COCCOc1cc2ncnc(Nc3ccc(F)c(Cl)c3)c2cc1NC(=O)CCCCCCC(=O)NO
- IC50 [8]: ≤ 0.1 µM
- IC50 [4]: 1 to 10 µM

Structure (SMILES): Cc1[nH]c(/C=C2\C(=O)Nc3ccc(F)cc32)c(C)c1C(=O)NCCCCCCC(=O)NO
- IC50 [1]: ≤ 0.1 µM
- IC50 [2]: 0.1 to 1 µM

Structure (SMILES): Cc1nc(Nc2ncc(C(=O)Nc3c(C)cccc3Cl)s2)cc(N2CCN(CC(=O)NO)CC2)n1
- IC50 [2]: ≤ 0.1 µM
- IC50 [9]: ≤ 0.1 µM
- IC50 [10]: ≤ 0.1 µM

Structure (SMILES): Cc1nc(NCCCCCC(=O)NO)cc(Nc2ncc(C(=O)Nc3c(C)cccc3Cl)s2)n1
- IC50 [2]: ≤ 0.1 µM
- IC50 [9]: ≤ 0.1 µM
- IC50 [10]: ≤ 0.1 µM
- IC50 [3]: ≤ 0.1 µM

Structure (SMILES): Cc1[nH]c(/C=C2\C(=O)Nc3ccc(F)cc32)c(C)c1C(=O)NCCCCCCCC(=O)NO
- IC50 [1]: ≤ 0.1 µM
- IC50 [2]: 0.1 to 1 µM

Structure (SMILES): Cc1nc(Nc2ncc(C(=O)Nc3c(C)cccc3Cl)s2)cc(N2CCN(CCCCCCC(=O)NO)CC2)n1
- IC50 [2]: ≤ 0.1 µM
- IC50 [9]: ≤ 0.1 µM
- IC50 [10]: ≤ 0.1 µM
- IC50 [3]: ≤ 0.1 µM

Structure (SMILES): CC(C)(C)c1cnc(CSc2cnc(NC(=O)CCCC(=O)NO)s2)o1
- IC50 [6]: ≤ 0.1 µM
- IC50 [7]: 0.1 to 1 µM

Structure (SMILES): O=C(CCCCCCCNC(=O)c1cc(Oc2ccc(NC(=O)Nc3ccc(Cl)c(C(F)(F)F)c3)cc2)ccn1)NO
- IC50 [1]: 0.1 to 1 µM
- IC50 [2]: 0.1 to 1 µM
- IC50 [3]: ≤ 0.1 µM

Structure (SMILES): O=C(CCCCC(=O)NCc1cc(Oc2ccc(NC(=O)Nc3ccc(Cl)c(C(F)(F)F)c3)cc2)ccn1)NO
- IC50 [1]: ≤ 0.1 µM
- IC50 [2]: 0.1 to 1 µM
- IC50 [3]: ≤ 0.1 µM

Structure (SMILES): Cc1nc(Nc2ncc(C(=O)Nc3c(C)cccc3Cl)s2)cc(N2CCN(CCCC(=O)NO)CC2)n1
- IC50 [9]: ≤ 0.1 µM
- IC50 [10]: ≤ 0.1 µM

Structure (SMILES): CC(C)(C)c1cnc(CSc2cnc(NC(=O)Cc3ccc(OCCCC(=O)NO)cc3)s2)o1
- IC50 [6]: ≤ 0.1 µM

Structure (SMILES): C#Cc1cccc(Nc2ncnc3cc(OC)c(OCCCCCCC(=O)NO)cc23)c1 [CUDC-101]
- IC50 [4]: 0.1 to 1 µM
- IC50 [11]: 0.17 µM
- IC50 [12]: 0.92 µM
- Activity [13]: 150%
- Activity [14]: Non-Toxic
- Activity [15]: Non-Toxic
- Activity [16]: Non-Toxic

Structure (SMILES): CC(C)(C)c1cnc(CSc2cnc(NC(=O)Cc3ccc(OCCCCC(=O)NO)cc3)s2)o1
- IC50 [6]: ≤ 0.1 µM

Structure (SMILES): C#Cc1cccc(Nc2ncnc3cc(OCCOC)c(OCCOC)cc23)c1 [ERLOTINIB]
- IC50 [11]: > 20 µM
- IC50 [12]: > 20 µM

Structure (SMILES): C#Cc1cccc(Nc2ncnc3cc(OC)c(OCCCCCCC(=O)N[O-])cc23)c1.[Na+]
- Stability [17]: > 12 h

Structure (SMILES): O=C(CCCCCCOc1ccc2ncnc(Nc3ccc(F)c(Cl)c3)c2c1)NO
- IC50 [8]: 0.1 to 1 µM
- IC50 [4]: 0.1 to 1 µM

Structure (SMILES): CC(C)(C)c1cnc(CSc2cnc(NC(=O)CCCCCCC(=O)NO)s2)o1
- IC50 [6]: ≤ 0.1 µM

Structure (SMILES): C#Cc1cccc(Nc2ncnc3cc(OC)c(OCCCCCCC(=O)NO)cc23)c1
- TGI [18]: Active
- TGI [19]: Active
- TGI [20]: Active
- TGI [21]: Active
- TGI [22]: Active
- TGI [23]: Active
- TGI [24]: Active

Structure (SMILES): Cc1nc(Nc2ncc(C(=O)Nc3c(C)cccc3Cl)s2)cc(N2CCN(CCCCCC(=O)NO)CC2)n1
- IC50 [2]: ≤ 0.1 µM
- IC50 [9]: ≤ 0.1 µM
- IC50 [10]: ≤ 0.1 µM
- IC50 [3]: ≤ 0.1 µM

Structure (SMILES): COc1cc2ncnc(Nc3ccc(F)c(Cl)c3)c2cc1OCCOc1ccc(/C=C/C(=O)NO)cc1
- IC50 [25]: ≤ 0.1 µM
- IC50 [4]: ≥ 10 µM

Structure (SMILES): COc1cc2ncnc(N[C@H](C)c3ccccc3)c2cc1OCCCCCC(=O)NO
- IC50 [4]: 1 to 10 µM

Structure (SMILES): Cc1nc(N)cc(N(CC(=O)NO)c2ncc(C(=O)Nc3c(C)cccc3Cl)s2)n1
- IC50 [9]: 0.1 to 1 µM
- IC50 [10]: 0.1 to 1 µM

Structure (SMILES): Cc1nc(NCCCCCCC(=O)NO)cc(Nc2ncc(C(=O)Nc3c(C)cccc3Cl)s2)n1
- IC50 [2]: ≤ 0.1 µM
- IC50 [9]: ≤ 0.1 µM
- IC50 [10]: ≤ 0.1 µM
- IC50 [3]: ≤ 0.1 µM

Structure (SMILES): Cc1nc(Nc2ncc(C(=O)Nc3c(C)cccc3Cl)s2)cc(N2CCN(CCCCC(=O)NO)CC2)n1
- IC50 [2]: ≤ 0.1 µM
- IC50 [9]: ≤ 0.1 µM
- IC50 [10]: ≤ 0.1 µM

Structure (SMILES): Cc1[nH]c(/C=C2\C(=O)Nc3ccc(F)cc32)c(C)c1C(=O)NCCCC(=O)NO
- IC50 [1]: ≤ 0.1 µM
- IC50 [2]: ≤ 0.1 µM

Structure (SMILES): Cc1nc(NCCNCC(=O)NO)cc(Nc2ncc(C(=O)Nc3c(C)cccc3Cl)s2)n1
- IC50 [9]: ≤ 0.1 µM
- IC50 [10]: ≤ 0.1 µM

Structure (SMILES): COc1cc2ncnc(Nc3ccc(F)c(Cl)c3)c2cc1NC(=O)CCCCCCC(=O)NO
- IC50 [8]: 0.1 to 1 µM
- IC50 [4]: 1 to 10 µM
